Patent US10323001B2, “Compositions for modulating a kinase cascade and methods of use thereof” (Athenex, Inc., priority 2006, dated 2019)
Like-named read-outs stand apart in the source and are kept apart here.

Tests used:
[1] = Moisture-sorption analysis (Hiden IGAsorp); assay type: physicochemical; conditions: 25° C.
Procedure: Moisture-sorption experiments were performed using a Hiden IGAsorp Moisture Sorption instrument on KX2-391.MSA obtained in accordance with the process of the present invention (Example 4). First, the sample was dried at 0% Relative Humidity (RH) and 25° C. until an equilibrium weight was reached or for a maximum of four hours. The sample was then subjected to an isothermal (25° C.) adsorption scan from 10 to 90% RH in steps of 10%. The sample was allowed to equilibrate to an asymptotic weight at each point for a maximum of four hours. Following adsorption, a desorption scan from 85 to 0% RH (at 25° C.) was run in steps of −10% again allowing a maximum of four hours for equilibration to an asymptotic weight. The sample was then dried for one hour at 80° C. and the resulting solid analyzed by XRPD. […] FIG. 10 depicts percent change of water content as a function of relative humidity for KX2-391.MSA, Form A.
Moisture-sorption experiments were performed using a Hiden IGAsorp Moisture Sorption Instrument on KX2-391.2HCl obtained in accordance with the process of the present invention (Example 3). First, the sample was dried at 0% Relative Humidity (RH) and 25° C. until an equilibrium weight was reached or for a maximum of four hours. The sample was then subjected to an isothermal (25° C.) adsorption scan from 10 to 90% RH in steps of 10%. The sample was allowed to equilibrate to an asymptotic weight at each point for a maximum of four hours. Following adsorption, a desorption scan from 85 to 0% RH (at 25° C.) was run in steps of −10% again allowing a maximum of four hours for equilibration to an asymptotic weight. The sample was then dried for one hour at 80° C. and the resulting solid analyzed by XRPD.

[2] = 5 mg/mL DI water dissolution experiment; assay type: physicochemical; design: key to dissolution state: P—Particulates partially dissolved; D—Particulates fully dissolved; conditions: for dissolution in 5 mg/mL DI water experiment: 5 mg in 1 mL DI water
Procedure: Dissolution experiments were performed on KX2-391 salts to provide a better understanding of the salts interaction in water. This was accomplished using a 5 mg/mL DI water dissolution experiment where 5 mg of each salt was weighed into a vial and 1 mL of DI wather was added. The solution was monitored visually with magnetic stirring over a 20 minute time period to observe the time of dissolution.

[3] = Threshold solubility of salt screen 96 well plate; conditions: DI water
Procedure: Following each addition, the plate was shaken to encourage mixing for at least 5 minutes prior to evaluation.

[4] = Solubility in DI water and pH 2.0 phosphate buffer; assay type: physicochemical; conditions: for solubility: thermodynamic from solid
Procedure: The table below summarizes additional characterization data for the fumaric and maleate KX2-391.MSA salts and compares it to free base, bis-HCl, and MSA salts described above. The results in the table below were obtained using the procedures described above in Examples 5 (XRPD), 6 (DSC), 7 (TGA), and 8 (moisture-sorption).
Solubility experiments were also performed using pH 2.0 phosphate buffer and DI water pH 6.9 and KX2-391.MSA, Form A. Each vial was filled with approximately 50 mg of KX2-391.MSA, Form A and 100 μL aliquots of the corresponding solvent was added until complete dissolution was observed, followed by stirring at room temperature for one and five days. The solids obtained were isolated by filtration, dried under vacuum at room temperature and analyzed by HPLC. The initial HPLC purity of KX2-391.MSA, Form A was 99.4 (% area). The solubility by HPLC of KX2-391.MSA, Form A in phosphate buffer/RT was >500 mg/mL and HPLC purity was measured to be 99.4. The solubility by HPLC of KX2-391.MSA, Form A in DI H2O/RT was >500 mg/mL and HPLC purity was measured to be 99.4.

[5] = Humidity chamber hygroscopicity study (salt solution chambers, visual inspection); assay type: physicochemical; conditions: ambient temperature
Procedure: Further characterization of the hygroscopicity of the mesylate salt was performed using several humidity chambers to cover a range of humidity from 75, 88 to 95% RH. The 75, 88, and 95% RH chambers were prepared with NaCl, BaCl2.2H2O, and Na2HPO4.12 H2O respectively and were equilibrated for 48 hours prior to introducing the samples. Samples were placed into aluminum pans and monitored by visual inspection for up to five days. Table 3 summarizes the observations at 0, 3, 5, 24, 48, 72, 96 and 120 hour time points.
Moisture sorption studies conducted at ambient temperature utilizing salt solution humidity chambers were conducted to evaluate solid stability by visual inspection.

[6] = as above; assay type: physicochemical; conditions: ambient temperature
[7] = about 5 mg in 1 mL DI water, magnetic stirring, 0 s
[8] = about 5 mg in 1 mL DI water, magnetic stirring, 30 s
[9] = about 5 mg in 1 mL DI water, magnetic stirring, 1 min
[10] = about 5 mg in 1 mL DI water, magnetic stirring, 2 min
[11] = about 5 mg in 1 mL DI water, magnetic stirring, 5 min
[12] = about 5 mg in 1 mL DI water, magnetic stirring, 10 min (1 mL DI water added)
[13] = about 5 mg, after additional 1 mL DI water, 15 min
[14] = about 5 mg, after additional 1 mL DI water, 20 min
[15] = salt screen well: 1 Equivalent of Acid, ACN
[16] = salt screen well: 1 Equivalent of Acid, Acetone
[17] = salt screen well: 1 Equivalent of Acid, Dioxane
[18] = salt screen well: 1 Equivalent of Acid, EtOH
[19] = salt screen well: 1 Equivalent of Acid, IPA
[20] = salt screen well: 1 Equivalent of Acid, THF
[21] = salt screen well: 2 Equivalents of Acid, Acetone
[22] = salt screen well: 2 Equivalents of Acid, Dioxane
[23] = salt screen well: 2 Equivalents of Acid, THF
[24] = % RH 90.0102, end of adsorption
[25] = % RH 90.0102, start of desorption
[26] = % RH −0.0430, end of desorption
[27] = % RH −0.0500, start of adsorption scan

Compound: O=C(Cc1ccc(-c2ccc(OCCN3CCOCC3)cc2)cn1)NCc1ccccc1.O=C(O)C=CC(=O)O [Fumaric]
- Moisture Sorption Wt % Water @ 90% RH [1]: 0.5 wt %
- dissolution in 5 mg/mL DI water experiment ([2]; magnetic stirring): not observed to dissolve solids within 10 minutes
- dissolution state [2, 7]: P
- dissolution state [2, 8]: P
- dissolution state [2, 9]: P
- dissolution state [2, 10]: P
- dissolution state [2, 11]: P
- dissolution state [2, 12]: P
- dissolution state [2, 13]: P
- dissolution state [2, 14]: D
- Threshold solubility rank [3, 15]: 5
- Threshold solubility rank [3, 16]: 5
- Threshold solubility rank [3, 17]: 4
- Threshold solubility rank [3, 18]: 2
- Threshold solubility rank [3, 19]: 2
- Threshold solubility rank [3, 20]: 5
- Threshold solubility rank ([3]; salt screen well: 2 Equivalents of Acid, ACN): 5
- Threshold solubility rank [3, 21]: 5
- Threshold solubility rank [3, 22]: 2
- Threshold solubility rank ([3]; salt screen well: 2 Equivalents of Acid, IPA): 2
- Threshold solubility rank [3, 23]: 5
- Solubility mg/mL [4]: DI H20: 7.6 mg/mL
- pH of solubility sample [4]: (4.5*)
- Solubility mg/mL ([4]; pH 2): pH 2: 21.5 mg/mL
- pH of solubility sample ([4]; pH 2): (4.5*)

Compound: Cl.Cl.O=C(Cc1ccc(-c2ccc(OCCN3CCOCC3)cc2)cn1)NCc1ccccc1 [KX2-391.2HCl, 2-(5-(4-(2-morpholinoethoxy)phenyl)pyridine-2-yl)-N-benzylacetamide dihydrochloride]
- inflection point of moisture sorption (suggesting deliquescence) [1]: 40-50 % RH
- hygroscopicity by moisture sorption analysis ([1]; adsorption scan 10 to 90% RH): significantly hygroscopic
- water absorbed at 60% RH ([1]; 60% RH): 16.7 wt %
- Moisture Sorption Wt % Water @ 90% RH [1]: 27.0 wt %
- Mole ration (water:sample) ([1]; % RH 4.9957, desorption): 1.3860
- Wt % water ([1]; % RH 4.9957, desorption): 4.7176 Wt %
- Mole ration (water:sample) ([1]; % RH 10.0011, adsorption): 2.0998
- Wt % water ([1]; % RH 10.0011, adsorption): 6.9776 Wt %
- Mole ration (water:sample) ([1]; % RH 15.0035, desorption): 2.0512
- Wt % water ([1]; % RH 15.0035, desorption): 6.8271 Wt %
- Mole ration (water:sample) ([1]; % RH 20.0071, adsorption): 2.4810
- Wt % water ([1]; % RH 20.0071, adsorption): 8.1412 Wt %
- Mole ration (water:sample) ([1]; % RH 25.0029, desorption): 4.0655
- Wt % water ([1]; % RH 25.0029, desorption): 12.6812 Wt %
- Mole ration (water:sample) ([1]; % RH 29.9953, adsorption): 2.7855
- Wt % water ([1]; % RH 29.9953, adsorption): 9.0498 Wt %
- Mole ration (water:sample) ([1]; % RH 35.0089, desorption): 4.3683
- Wt % water ([1]; % RH 35.0089, desorption): 13.4981 Wt %
- Mole ration (water:sample) ([1]; % RH 39.9936, adsorption): 3.1317
- Wt % water ([1]; % RH 39.9936, adsorption): 10.0615 Wt %
- Mole ration (water:sample) ([1]; % RH 45.0063, desorption): 4.6309
- Wt % water ([1]; % RH 45.0063, desorption): 14.1945 Wt %
- Mole ration (water:sample) ([1]; % RH 50.0083, adsorption): 4.7853
- Wt % water ([1]; % RH 50.0083, adsorption): 14.5986 Wt %
- Mole ration (water:sample) ([1]; % RH 54.9876, desorption): 4.8578
- Wt % water ([1]; % RH 54.9876, desorption): 14.7870 Wt %
- Mole ration (water:sample) ([1]; % RH 59.9940, adsorption): 5.6228
- Wt % water ([1]; % RH 59.9940, adsorption): 16.7261 Wt %
- Mole ration (water:sample) ([1]; % RH 64.9989, desorption): 5.0957
- Wt % water ([1]; % RH 64.9989, desorption): 15.3997 Wt %
- Mole ration (water:sample) ([1]; % RH 70.0044, adsorption): 6.6487
- Wt % water ([1]; % RH 70.0044, adsorption): 19.1922 Wt %
- Mole ration (water:sample) ([1]; % RH 75.0016, desorption): 5.5767
- Wt % water ([1]; % RH 75.0016, desorption): 16.6119 Wt %
- Mole ration (water:sample) ([1]; % RH 80.0002, adsorption): 7.4350
- Wt % water ([1]; % RH 80.0002, adsorption): 20.9856 Wt %
- Mole ration (water:sample) ([1]; % RH 84.9979, desorption): 8.3910
- Wt % water ([1]; % RH 84.9979, desorption): 23.0617 Wt %
- Mole ration (water:sample) [1, 24]: 10.3345
- Wt % water [1, 24]: 26.9630 Wt %
- Mole ration (water:sample) [1, 25]: 10.3345
- Wt % water [1, 25]: 26.9630 Wt %
- Mole ration (water:sample) [1, 26]: 0.3038
- Wt % water [1, 26]: 1.0737 Wt %
- Mole ration (water:sample) [1, 27]: 1.7493
- Wt % water [1, 27]: 5.8814 Wt %
- Time to deliquescence ([5]; 42% RH): <3 h
- Results (visual inspection) ([5]; 42% RH, dihydrochloride): deliquescence was observed within three hours
- Time to deliquescence ([5]; 51% RH, dihydrochloride): ≤ 12 h
- Time to deliquescence ([5]; 51% RH, listed as KX2-391•2HCl, dihydrochloride): <12 h
- Results (visual inspection) ([5]; 95% RH): Deliquescence
- Time to deliquescence ([5]; 95% RH, dihydrochloride): ≤ 12 h
- Time to deliquescence ([5]; 95% RH, listed as KX2-391•2HCl, dihydrochloride): <12 h
- deliquescence humidity at ambient temperature [5]: 32-42 % RH
- Results (visual inspection) ([6]; 32% RH, 7 days, dihydrochloride): remain stable
- Results (visual inspection) ([6]; 32% RH, 7 days, listed as KX2-391•2HCl, dihydrochloride): Solid
- Results (visual inspection) ([6]; 42% RH, dihydrochloride): Deliquescence
- Results (visual inspection) ([6]; 51% RH): Deliquescence
- pH of solubility sample [4]: 2.1
- pH of solubility sample ([4]; pH 2): (1.9)
- solubility ([4]; pH 2, aqueous buffer): > 500 mg/mL
- solubility ([4]; pH 6.9, water): > 500 mg/mL

Compound: O=C(O)CC(O)C(=O)O (stereo not drawn) [Malic]
- Threshold solubility rank [3, 17]: 1

Compound: Cc1ccc(S(=O)(=O)O)cc1.O=C(Cc1ccc(-c2ccc(OCCN3CCOCC3)cc2)cn1)NCc1ccccc1 [p-TSA]
- Threshold solubility rank [3, 15]: 5
- Threshold solubility rank [3, 16]: 5
- Threshold solubility rank [3, 17]: 5
- Threshold solubility rank [3, 18]: 5
- Threshold solubility rank [3, 19]: 5
- Threshold solubility rank [3, 20]: 5

Compound: Maleate
- Moisture Sorption Wt % Water @ 90% RH [1]: 1.4 wt %
- dissolution in 5 mg/mL DI water experiment ([2]; magnetic stirring): not observed to dissolve solids within 10 minutes
- dissolution state [2, 7]: P
- dissolution state [2, 8]: P
- dissolution state [2, 9]: P
- dissolution state [2, 10]: P
- dissolution state [2, 11]: P
- dissolution state [2, 12]: P
- dissolution state [2, 13]: P
- dissolution state [2, 14]: P
- Threshold solubility rank [3, 15]: N
- Threshold solubility rank [3, 16]: N
- Threshold solubility rank [3, 17]: N
- Threshold solubility rank [3, 18]: N
- Threshold solubility rank [3, 19]: N
- Threshold solubility rank [3, 20]: N
- Threshold solubility rank [3, 21]: 1
- Threshold solubility rank [3, 22]: 1
- Threshold solubility rank [3, 23]: 1
- Solubility mg/mL ([4]; DI H2O): DI H20: 7.3 mg/mL
- pH of solubility sample ([4]; DI H2O, * approximate, pH paper instead of meter): (4.5*)
- Solubility mg/mL ([4]; pH 2): pH 2: 21.2 mg/mL
- pH of solubility sample ([4]; pH 2 medium, * approximate, pH paper instead of meter): (4.5*)
